Measured values: patent US20100331348A1, “TROPANE DERIVATIVES USEFUL AS PESTICIDES” (SYNGENTA CROP PROTECTION, INC., priority 2007, published 2010)

Key:
Assay type in all cases: in vivo
[1] = tested on: Erysiphe graminis f.sp. tritici; experiment: Erysiphe graminis f.sp. tritici (wheat powdery mildew) leaf disk assay; conditions: Blumeria graminis, foliar, 96 h, preventive, four days after inoculation, read-out: control of fungal infection, Erysiphe graminis fsp. tritici
[2] = tested on: Puccinia recondita f.sp. tritici; experiment: Puccinia recondita f.sp. tritici (wheat brown rust) leaf disk assay; conditions: foliar, 216 h, preventive, nine days after inoculation, read-out: control of fungal infection, Puccinia recondita f.sp. tritici
[3] = tested on: Pyricularia oryzae; experiment: whole plant or invertebrate; conditions: foliar, 96 h, read-out: control of fungal infection, Pyricularia oryzae (at least 60% list)

SMILES | pest or weed control at 200 ppm [1] [%] | pest or weed control at 200 ppm [2] [%] | pest or weed control at 200 ppm [3] [%]
Fc1ccc(OC2C[C@H]3CC[C@@H](C2)N3c2ncnc3sccc23)cc1F (stereo partly drawn) [Example 1.18] | ≥ 80 | ≥ 80 | –
Clc1cc(Br)ccc1OC1C[C@H]2CC[C@@H](C1)N2c1ncnc2sccc12 (stereo partly drawn) [Example 1.28] | – | – | ≥ 60
Cc1nn(C)c2nccc(N3[C@@H]4CC[C@H]3CC(Oc3ccc(Cl)cc3)C4)c12 (stereo partly drawn) [Example 1.138] | – | – | ≥ 60
O=C(Cc1ccccc1)c1ccc(OC2C[C@H]3CC[C@@H](C2)N3c2ncnc3sccc23)cc1 (stereo partly drawn) [Example 1.257] | – | ≥ 80 | –
Fc1ccc(OC2C[C@H]3CC[C@@H](C2)N3c2ncnc3sccc23)cc1F (stereo partly drawn) [Example 2.18] | – | – | ≥ 60
O=C(c1ccccc1)c1ccc(OC2C[C@H]3CC[C@@H](C2)N3c2ncnc3sccc23)cc1 (stereo partly drawn) [Example 2.39] | – | – | ≥ 60
CC(=O)CCc1ccc(OC2C[C@H]3CC[C@@H](C2)N3c2ncnc3sccc23)cc1 (stereo partly drawn) [Example 2.40] | – | ≥ 80 | –
Fc1ccc(OC2C[C@H]3CC[C@@H](C2)N3c2ncnc3sccc23)cc1C(F)(F)F (stereo partly drawn) [Example 2.52] | – | – | ≥ 60
O=c1oc2cc(OC3C[C@H]4CC[C@@H](C3)N4c3ncnc4sccc34)ccc2s1 (stereo partly drawn) [Example 2.69] | – | – | ≥ 60
Cc1csc2c(N3[C@@H]4CC[C@H]3CC(Oc3ccc(C(F)(F)F)cn3)C4)ncnc12 (stereo partly drawn) [Example 2.81] | – | – | ≥ 60
FC(F)(F)c1cccc(OC2C[C@H]3CC[C@@H](C2)N3c2ccncn2)n1 (stereo partly drawn) [Example 2.86] | ≥ 80 | ≥ 80 | –
CSc1nccc(N2[C@@H]3CC[C@H]2CC(Oc2cccc(C(F)(F)F)n2)C3)n1 (stereo partly drawn) [Example 2.98] | – | – | ≥ 60
COCc1ncnc(N2[C@@H]3CC[C@H]2CC(Oc2cccc(C(F)(F)F)n2)C3)c1OC (stereo partly drawn) [Example 2.137] | ≥ 80 | ≥ 80 | –
Cc1nn(C)c2nccc(N3[C@@H]4CC[C@H]3CC(Oc3ccc(Oc5ccc(C(F)(F)F)cn5)cc3)C4)c12 (stereo partly drawn) [Example 2.160] | – | – | ≥ 60
CCc1ncnc(N2[C@@H]3CC[C@H]2CC(Oc2ccc4sc(=O)oc4c2)C3)c1Cl (stereo partly drawn) [Example 2.177] | – | – | ≥ 60
FC(F)(F)c1ccnc(OC2C[C@H]3CC[C@@H](C2)N3c2ccnc3c(Cl)cccc23)c1 (stereo partly drawn) [Example 2.195] | – | – | ≥ 60
Cn1cc(C(=O)N2[C@@H]3CC[C@H]2CC(Oc2cccc(C(F)(F)F)n2)C3)c(C(F)(F)F)c1 (stereo partly drawn) [Example 2.197] | – | ≥ 80 | –
CCCOC(=O)c1ccc(OC2C[C@H]3CC[C@@H](C2)N3c2ncnc3sccc23)cc1 (stereo partly drawn) [Example 2.226] | – | ≥ 80 | –
CCc1ncnc(N2C3CCC2CC(=CC(=O)NC(C)c2ccccc2)C3)c1Cl (stereo not drawn) [Example 3.10] | – | ≥ 80 | –
C(#Cc1ccccc1)CC=C1CC2CCC(C1)N2c1ncnc2sccc12 [Example 3.26] | – | ≥ 80 | –
C#CCN(CC#C)C1C[C@H]2CC[C@@H](C1)N2c1ncnc2sccc12 (stereo partly drawn) [Example 4.15] | – | ≥ 80 | –
CCc1ncnc(N2C3CCC2CC(=NOCc2cc(C)cc(C)c2)C3)c1Cl [Example 5.11] | – | ≥ 80 | –

SMILES | pest or weed control at 200 ppm [1] [%] | pest or weed control at 200 ppm [2] [%] | pest or weed control at 200 ppm [3] [%]
CCc1ncnc(N2C3CCC2CC(=NOCc2cccc(Oc4ccccc4)c2)C3)c1Cl [Example 5.18] | ≥ 80 | ≥ 80 | –
CCc1ncnc(N2C3CCC2CC(=NOCc2ccccc2-c2ccccc2)C3)c1Cl [Example 5.35] | ≥ 80 | ≥ 80 | –
CCc1ncnc(N2C3CCC2CC(=NOCc2cccc(Cl)c2)C3)c1Cl [Example 5.37] | ≥ 80 | ≥ 80 | –
CCc1ncnc(N2C3CCC2CC(=NOCc2cccc(Br)c2)C3)c1Cl [Example 5.39] | ≥ 80 | ≥ 80 | –
CCc1ncnc(N2C3CCC2CC(=NOCc2cccc(CCl)c2)C3)c1Cl [Example 5.45] | ≥ 80 | ≥ 80 | –
CCc1ncnc(N2C3CCC2CC(=NOCc2ccccc2I)C3)c1Cl [Example 5.46] | ≥ 80 | ≥ 80 | –
CCc1ncnc(N2C3CCC2CC(=NOCc2cc(C)ccc2C)C3)c1Cl [Example 5.47] | ≥ 80 | ≥ 80 | –
CCc1ncnc(N2C3CCC2CC(=NOCc2ccc(F)c(F)c2)C3)c1Cl [Example 5.56] | ≥ 80 | ≥ 80 | –
CCc1ncnc(N2C3CCC2CC(=NOCc2ccc(-c4ccccc4C#N)cc2)C3)c1Cl [Example 5.58] | ≥ 80 | ≥ 80 | –
CCc1ncnc(N2C3CCC2CC(=NOCc2cccc(Cl)c2Cl)C3)c1Cl [Example 5.59] | ≥ 80 | ≥ 80 | –
CCc1ncnc(N2C3CCC2CC(=NOCc2ccc(OCc4ccccc4)cc2)C3)c1Cl [Example 5.64] | ≥ 80 | ≥ 80 | –
CCc1ncnc(N2C3CCC2CC(=NOCc2cccc(OC(F)F)c2)C3)c1Cl [Example 5.65] | ≥ 80 | ≥ 80 | –
CCc1ncnc(N2C3CCC2CC(=NOCc2cc(F)c(F)c(F)c2)C3)c1Cl [Example 5.67] | ≥ 80 | ≥ 80 | –
CCc1ncnc(N2C3CCC2CC(=NOCc2cc(F)cc(F)c2F)C3)c1Cl [Example 5.80] | ≥ 80 | ≥ 80 | –
CCc1ncnc(N2C3CCC2CC(=NOCc2cc(F)ccc2Br)C3)c1Cl [Example 5.83] | – | ≥ 80 | –
CCc1ncnc(N2C3CCC2CC(=NOCc2c(F)c(F)c(F)c(F)c2F)C3)c1Cl [Example 5.84] | ≥ 80 | ≥ 80 | –
CCc1ncnc(N2C3CCC2CC(=NOCc2ccc4ccccc4n2)C3)c1Cl [Example 5.89] | ≥ 80 | ≥ 80 | –
CCc1ncnc(N2C3CCC2CC(=NOCC2COc4ccccc4O2)C3)c1Cl (stereo not drawn) [Example 5.93] | ≥ 80 | ≥ 80 | –
CCc1ncnc(N2C3CCC2CC(=NOCc2cc(F)cc4c2OCOC4)C3)c1Cl [Example 5.121] | ≥ 80 | ≥ 80 | –
CCc1ncnc(N2C3CCC2CC(=NOCc2noc(-c4ccc(C(F)(F)F)cc4)n2)C3)c1Cl [Example 5.126] | ≥ 80 | ≥ 80 | –
COc1cc(CON=C2CC3CCC(C2)N3c2ncnc3sccc23)nc(N)n1 [Example 5.172] | ≥ 80 | ≥ 80 | –
c1ccc(-c2ccc(CON=C3CC4CCC(C3)N4c3ncnc4sccc34)cc2)cc1 [Example 5.175] | ≥ 80 | ≥ 80 | –

SMILES | pest or weed control at 200 ppm [1] [%] | pest or weed control at 200 ppm [2] [%] | pest or weed control at 200 ppm [3] [%]
Cc1c(CON=C2CC3CCC(C2)N3c2ncnc3sccc23)ccc2ccccc12 [Example 5.176] | ≥ 80 | – | –
Fc1cc(Cl)cnc1ON=C1CC2CCC(C1)N2c1ncnc2sccc12 [Example 5.182] | ≥ 80 | ≥ 80 | –
FC(F)(F)c1cc(CON=C2CC3CCC(C2)N3c2ncnc3sccc23)cc(C(F)(F)F)c1 [Example 5.186] | ≥ 80 | – | –
CCc1nc(Cl)c(CC)c(ON=C2CC3CCC(C2)N3c2ncnc3sccc23)n1 [Example 5.194] | ≥ 80 | – | –
FC(F)(F)c1ccc(Cl)c(CON=C2CC3CCC(C2)N3c2ncnc3sccc23)c1 [Example 5.195] | ≥ 80 | – | –
ClCc1cccc(CON=C2CC3CCC(C2)N3c2ncnc3sccc23)c1 [Example 5.200] | ≥ 80 | – | –
Ic1ccccc1CON=C1CC2CCC(C1)N2c1ncnc2sccc12 [Example 5.201] | ≥ 80 | ≥ 80 | –
N#Cc1ccccc1-c1ccc(CON=C2CC3CCC(C2)N3c2ncnc3sccc23)cc1 [Example 5.206] | – | ≥ 80 | –
Fc1cc(CON=C2CC3CCC(C2)N3c2ncnc3sccc23)cc(F)c1F [Example 5.208] | ≥ 80 | ≥ 80 | –
Cc1nc(ON=C2CC3CCC(C2)N3c2ncnc3sccc23)cc(N(C)C)n1 [Example 5.209] | ≥ 80 | – | –
Fc1c(F)c(F)c(CON=C2CC3CCC(C2)N3c2ncnc3sccc23)c(F)c1F [Example 5.225] | ≥ 80 | ≥ 80 | –
FC(F)(F)Sc1ccc(CON=C2CC3CCC(C2)N3c2ncnc3sccc23)cc1 [Example 5.230] | ≥ 80 | ≥ 80 | –
CCCON=C1CC2CCC(C1)N2c1ccnc2c1c(C)nn2C [Example 5.244] | ≥ 80 | – | –
CCn1nnc(-c2ccc(CON=C3CC4CCC(C3)N4c3ncnc4sccc34)cc2)n1 [Example 5.247] | ≥ 80 | ≥ 80 | –
COc1nc(-c2ccc(C)cc2)nc(ON=C2CC3CCC(C2)N3c2ncnc3sccc23)c1C [Example 5.251] | ≥ 80 | – | –
CSc1nc(Cl)c(-c2ccccc2)c(ON=C2CC3CCC(C2)N3c2ncnc3sccc23)n1 [Example 5.254] | – | ≥ 80 | –
Fc1cc2c(c(CON=C3CC4CCC(C3)N4c3ncnc4sccc34)c1)OCOC2 [Example 5.257] | ≥ 80 | ≥ 80 | –
CCCCCCCCC1COC2(CC3CCC(C2)N3c2ncnc3sccc23)O1 (stereo not drawn) [Example 6.1] | ≥ 80 | – | –
CC(NC(=O)CC1CC2CCC(C1)N2c1ncnc2sccc12)c1ccccc1 (stereo not drawn) [Example 7.13] | – | ≥ 80 | –
CCCNC(=O)CC1CC2CCC(C1)N2c1ncnc(CC)c1Cl (stereo not drawn) [Example 7.30] | – | ≥ 80 | –
CCc1ncnc(N2C3CCC2CC(CC(=O)NC(C)c2ccccc2)C3)c1Cl (stereo not drawn) [Example 7.31] | – | ≥ 80 | –
